Entries after “also recorded” stand apart in the source; their conditions may differ.
Legend:
6 Hz-induced seizures = test: 6 Hz seizure test in mice with isobolographic analysis; conditions: for doses for antiseizure effect compared with those needed in the MES test: MES data obtained in other studies; for anticonvulsant effects against 6 Hz seizure: drug administered alone, i.p., mice
[1] = target: collapsing response mediator protein CRMP-2 (Homo sapiens, UniProt Q16555); test: Modulation of CRMP-2; conditions: recent data
motor coordination = test: Rotarod test; type: in vivo, mice; conditions: drug alone at pharmacological doses
Experimental: The impaired motor function was quantified by the rotarod test in mice according to Dunham and Miya (1957). The rotarod test was undertaken by use of a rod of 3 cm diameter, rotating at constant speed of 6 rpm. In this test, an acute neurological deficit (adverse effects produced by AEDs) was indicated by the inability of the animals to maintain their equilibrium for at least 120 s on the rotating rod. The dose ratio assessed in this model was always 1:1. For comparison, each AED was tested alone at its ED50 and 50% of its ED50 in the 6 Hz model.

[2] = test system: 6 Hz refractory seizure model; conditions: in vivo; cited from earlier work
glutamate transmission = conditions: mouse cortical neurons; cited from earlier work
sound-induced seizure = conditions: mouse, in vivo; cited from earlier work
[3] = Clinical population pharmacokinetic analysis
GABA currents = conditions: mouse cortical neurons; cited from earlier work
[4] = test system: refractory self-sustaining status epilepticus; conditions: in vivo; cited from earlier work
[5] = test system: lithium-pilocarpine-induced status epilepticus; conditions: in vivo; cited from earlier work
NMDA-evoked currents = conditions: cell/tissue culture; cited from earlier work
[6] = test system: pattern of neuronal activation; conditions: 2-deoxy glucose technique; cited from earlier work
[7] = test system: voltage gated sodium channels; test: Voltage gated sodium channels in cell/tissue culture; type: cell-based; conditions: recent data
[8] = test system: neurotransmitter receptors or ion channels; conditions: more than 100 different sites; cited from earlier work
[9] = test system: maximal electroshock seizure [MES]; conditions: in vivo; cited from earlier work
[10] = test system: voltage gated sodium channels; conditions: cell/tissue culture; cited from earlier work
[11] = test system: cobalt-homocysteine-induced status epilepticus; conditions: in vivo; cited from earlier work
epileptic seizures = test: ED50 values in various models of the rat and the mouse; type: in vivo; conditions: i.p.
Experimental: The skilled person may determine the ED50 values by methods known in the art. It is preferred that the ED50 values are determined by preclinical or/and clinical trials. Published ED50 values may also be used. […] FIGS. 12 and 13 disclose specific ED50 values obtained in various models of the rat and the mouse. A person skilled in the art knows that in a particular model, among different species, ED50 values show a variation by a factor of up to 5 or even larger.

NC(=O)N1c2ccccc2C=Cc2ccccc21 [CBZ, carbamazepine]
doses for antiseizure effect compared with those needed in the MES test (6 Hz-induced seizures): significantly higher doses
anticonvulsant effects against 6 Hz seizure (6 Hz-induced seizures): dose-dependent anticonvulsant effects

NCC1(CC(=O)O)CCCCC1 [GBP, gabapentin]
doses for antiseizure effect compared with those needed in the MES test (6 Hz-induced seizures): significantly higher doses
anticonvulsant effects against 6 Hz seizure (6 Hz-induced seizures): dose-dependent anticonvulsant effects

COC[C@@H](NC(C)=O)C(=O)NCc1ccccc1 [LCM, R-2-acetamido-N-benzyl-3-methoxypropionamide]
effect on CRMP-2 [1]: modulates
rotarod performance (motor coordination): did not impair rotarod performance
anticonvulsant activity [2]: anticonvulsant activity has been shown
effect on glutamate transmission (glutamate transmission): inhibited glutamate transmission indirectly
anticonvulsant activity (sound-induced seizure): anticonvulsant activity has been shown
effect on plasma levels of AEDs or vice versa [3]: no evidence for any effect
effect on GABA currents (GABA currents): increased GABA currents
activity against status epilepticus [4]: active
activity against status epilepticus [5]: effective
effects on NMDA-evoked currents (NMDA-evoked currents): no effects
effect on basal patterns [6]: no effect
effect on the pattern of neuronal activation by 6 Hz induced seizures [6]: attenuated
slow inactivation of voltage-gated sodium channels [7]: enhances slow inactivation
binding [8]: neither LCM nor its metabolites bind
anticonvulsant activity [9]: anticonvulsant activity has been shown
potency compared to the other tested AEDs (6 Hz-induced seizures; 6 Hz model, drugs alone): highest potency
anticonvulsant effects against 6 Hz seizure (6 Hz-induced seizures): dose-dependent anticonvulsant effects; also recorded: fully protected
effects at voltage gated sodium channels [10]: no effects
activity against status epilepticus [11]: effective

CC[C@@H](C(N)=O)N1CCCC1=O [LEV, levetiracetam]
protection in the 6 Hz model [2]: complete protection
ED50 (epileptic seizures): about 20 mg/kg body weight
anticonvulsant effects against 6 Hz seizure (6 Hz-induced seizures): dose-dependent anticonvulsant effects

Nc1nnc(-c2cccc(Cl)c2Cl)c(N)n1 [LTG, lamotrigine]
ED50 (epileptic seizures): about 85 mg/kg body weight
doses for antiseizure effect compared with those needed in the MES test (6 Hz-induced seizures): significantly higher doses
anticonvulsant effects against 6 Hz seizure (6 Hz-induced seizures): dose-dependent anticonvulsant effects

O=C1NC(=O)C(c2ccccc2)(c2ccccc2)N1 [PHT, phenytoin]
doses for antiseizure effect compared with those needed in the MES test (6 Hz-induced seizures): significantly higher doses
anticonvulsant effects against 6 Hz seizure (6 Hz-induced seizures): dose-dependent anticonvulsant effects

CC1(C)O[C@@H]2[C@@H](CO[C@@]3(COS(N)(=O)=O)OC(C)(C)O[C@@H]23)O1 [TPM, topiramate]
doses for antiseizure effect compared with those needed in the MES test (6 Hz-induced seizures): significantly higher doses
anticonvulsant effects against 6 Hz seizure (6 Hz-induced seizures): dose-dependent anticonvulsant effects

From patent US9446011B2, “Anticonvulsant combination therapy” (UCB Pharma GmbH, priority 2006, dated 2016)
